Measurements from US10792274B2, “Dehydroacetic acid (DHAA) and derivative for uses in treating cancer” (Emory University, priority 2016, dated 2020).
Entries after “also recorded” stand apart in the source; their conditions may differ.

What was measured:
[1] = biological target: T1, BRAF V600E (Homo sapiens, UniProt P15056, V600E); test: 14C-labeled acetoacetate binding assay (radiometric metabolite-protein interaction)
Procedure: (§1) BRAF wild type and mutant proteins were incubated with increasing concentrations of ^14C-labeled acetoacetate.
(§2) A series of radiometric metabolite-protein interaction analyses were performed using ^14C labeled acetoacetate incubated with purified BRAF variants in the presence and absence of DHAA.

[2] = biological target: BRAF V600D (Homo sapiens, UniProt P15056, V600D); test: 14C-labeled acetoacetate binding assay
Procedure: as §1, §2

[3] = biological target: BRAF V600R (Homo sapiens, UniProt P15056, V600R); test: 14C-labeled acetoacetate binding assay
Procedure: as §1, §2

[4] = biological target: T2, V600E mutant of an active, truncated C-terminal domain of BRAF (tBRAF, 416-766 aa) (Homo sapiens, UniProt P15056, V600E); test: 14C-labeled acetoacetate binding assay
T2 construct: truncated C-terminal domain of BRAF (tBRAF, 416-766 aa)
Procedure: as §2

[5] = test system: control V600A mutant or other clinically reported BRAF mutants including K507E, N581S, D594N, L597Q, K601E, and S616F; test: 14C-labeled acetoacetate binding assay, other BRAF mutants
Procedure: as §1, §2

[6] = biological target: T3, FLAG-tagged BRAF V600E (Homo sapiens, UniProt P15056, V600E); test: cellular thermal shift assay, lysates of transfected 293T cells; format: binding; details: 400 μM
T3 construct: FLAG; expressed in transfected cells; host or cells: 293T cells (lysates)
Source text: Whether functional inhibition of acetoacetate would attenuate BRAF V600E tumor growth was examined. Dehydroacetic acid (DHAA) (FIG. 4A) is an inhibitory homologue of acetoacetate.

[7] = biological target: T1, BRAF V600E; test: BRAF V600E kinase activity (Vmax and Km), MEK1 as substrate; format: biochemical; details: acetoacetate binding; MEK1 as substrate
Procedure: (§3) Whether DHAA inhibits BRAF V600E directly was examined. […] In contrast, DHAA had no effect on BRAF WT-MEK1 binding or MEK1 phosphorylation in a control experiment using purified BRAF WT incubated with MEK1 in the presence of acetoacetate (FIG. 4I left panel). […] This is physiologically consistent with the acetoacetate levels determined as approximately 300 μM in stable HMGCL knockdown A375 and A2058 cells.

[8] = biological target: BRAF V600E-MEK1 binding (Homo sapiens, UniProt P15056, V600E); test: cell-free in vitro coupled protein-protein binding and kinase assay; format: biochemical; details: substance alone
Procedure: as §3

[9] = biological target: BRAF V600D-MEK1 binding (Homo sapiens, UniProt P15056, V600D); test: MEK1 binding to BRAF mutants; format: biochemical
[10] = biological target: BRAF V600R-MEK1 binding (Homo sapiens, UniProt P15056, V600R); test: MEK1 binding to BRAF mutants; format: biochemical
[11] = test system: other BRAF mutants-MEK1 binding; test: MEK1 binding to BRAF mutants; format: biochemical
[12] = test system: Me1-ST cells expressing BRAF V600E; test: immortalized melanocyte treatment: proliferation, MEK-ERK activation, BRAF-MEK1 binding; format: cell-based; details: DHAA plus acetoacetate rescue treatment
[13] = test system: diverse BRAF V600E-expressing cells; test: DHAA with or without acetoacetate treatment of cells; format: cell-based; details: DHAA plus acetoacetate treatment
[14] = test system: BRAF V600E-expressing human melanoma A375 cells; test: A375 xenograft in nude mice; format: in vivo
[15] = test system: BRAF V600E-expressing human melanoma A2058 cells; test: A2058 xenograft in nude mice; format: in vivo
Source text: Xenograft tumor growth and in nude mice inoculated with BRAF V600E-positive human melanoma A2058 fed with normal or high-fat diets followed by intraperitoneal injection with DHAA.

[16] = test system: NRAS Q61K-expressing HMCB cells; test: HMCB xenograft in nude mice; format: in vivo
[17] = serum and tumor metabolite levels and body weight of xenograft mice; format: in vivo
[18] = chronic injection of acetoacetate or 3HB to nude mice; format: in vivo; details: chronic injection for 4 weeks
[19] = format: physicochemical
Procedure: To exclude potential effects of the lithium ion, a series of experiments were performed using a control salt lithium chloride.

[20] = increasing concentrations of 14C-labeled acetoacetate
[21] = DHAA plus intraperitoneal acetoacetate
[22] = acetoacetate injection in mice treated with fluvastatin, niacin or fenofibrate

T1 sequence (P15056 whole entry V600E): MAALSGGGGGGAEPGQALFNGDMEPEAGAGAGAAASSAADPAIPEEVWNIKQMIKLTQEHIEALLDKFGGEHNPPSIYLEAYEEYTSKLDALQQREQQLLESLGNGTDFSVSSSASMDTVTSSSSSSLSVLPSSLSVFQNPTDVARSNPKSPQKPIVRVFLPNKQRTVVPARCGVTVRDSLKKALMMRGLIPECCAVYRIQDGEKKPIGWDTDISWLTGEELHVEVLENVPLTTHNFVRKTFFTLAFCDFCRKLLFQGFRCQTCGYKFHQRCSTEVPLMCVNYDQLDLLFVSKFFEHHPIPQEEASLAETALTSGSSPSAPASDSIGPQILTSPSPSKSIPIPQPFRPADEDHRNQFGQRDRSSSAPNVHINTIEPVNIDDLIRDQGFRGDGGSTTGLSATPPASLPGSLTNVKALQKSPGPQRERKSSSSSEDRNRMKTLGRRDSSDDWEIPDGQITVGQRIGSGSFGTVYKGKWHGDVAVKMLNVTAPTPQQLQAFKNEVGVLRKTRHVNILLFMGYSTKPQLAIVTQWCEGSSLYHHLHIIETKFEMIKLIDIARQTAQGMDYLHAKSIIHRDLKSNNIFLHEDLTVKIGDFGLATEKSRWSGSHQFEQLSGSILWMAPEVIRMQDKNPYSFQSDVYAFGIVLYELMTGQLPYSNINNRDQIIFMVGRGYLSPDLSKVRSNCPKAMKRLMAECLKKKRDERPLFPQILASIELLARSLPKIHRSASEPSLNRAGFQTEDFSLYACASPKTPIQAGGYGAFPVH
Chain of BRAF V600D (P15056 whole entry V600D): as the sequence (P15056 whole entry V600E) above, with E600D counted along it
Chain of BRAF V600R (P15056 whole entry V600R): as the sequence (P15056 whole entry V600E) above, with E600R counted along it
Chain of BRAF V600E-MEK1 binding (P15056 whole entry V600E): as the sequence (P15056 whole entry V600E) above
T3 sequence (P15056 whole entry V600E): as above
T2 sequence (P15056 416-766 V600E): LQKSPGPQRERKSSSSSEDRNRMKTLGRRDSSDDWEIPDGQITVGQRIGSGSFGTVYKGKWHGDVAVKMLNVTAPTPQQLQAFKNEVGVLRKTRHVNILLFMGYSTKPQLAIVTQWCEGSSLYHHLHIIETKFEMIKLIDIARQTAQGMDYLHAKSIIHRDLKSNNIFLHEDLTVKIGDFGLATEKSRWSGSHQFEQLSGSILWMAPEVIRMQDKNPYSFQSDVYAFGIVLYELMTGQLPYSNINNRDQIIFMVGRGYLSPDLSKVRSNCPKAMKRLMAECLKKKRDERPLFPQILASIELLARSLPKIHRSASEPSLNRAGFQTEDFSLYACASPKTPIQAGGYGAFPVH
Chain of BRAF V600D-MEK1 binding (P15056 whole entry V600D): as the sequence (P15056 whole entry V600E) above, with E600D counted along it
Chain of BRAF V600D-MEK1 binding (Q02750 whole entry partner): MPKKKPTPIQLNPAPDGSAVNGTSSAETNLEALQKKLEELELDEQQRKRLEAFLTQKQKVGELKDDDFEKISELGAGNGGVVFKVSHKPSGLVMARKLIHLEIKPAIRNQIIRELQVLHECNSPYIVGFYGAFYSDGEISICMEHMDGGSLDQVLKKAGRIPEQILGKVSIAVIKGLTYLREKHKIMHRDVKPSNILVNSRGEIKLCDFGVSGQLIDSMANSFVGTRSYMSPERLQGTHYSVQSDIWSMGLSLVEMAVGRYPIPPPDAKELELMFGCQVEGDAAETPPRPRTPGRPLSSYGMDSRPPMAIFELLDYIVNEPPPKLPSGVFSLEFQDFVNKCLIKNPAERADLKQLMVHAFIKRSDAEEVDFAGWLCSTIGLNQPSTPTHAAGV
Chain of BRAF V600R-MEK1 binding (P15056 whole entry V600R): as the sequence (P15056 whole entry V600E) above, with E600R counted along it
Chain of BRAF V600R-MEK1 binding (Q02750 whole entry partner): as the sequence (Q02750 whole entry partner) above

Question: Which results are given for `CC(=O)CC(=O)O` [acetoacetate]?
Answer: Kd [1, 20]: ~92 µM; binding of 14C-labeled acetoacetate ([1]; purified BRAF V600E): binds to purified BRAF V600E; also recorded: specifically bound; binding of 14C-labeled acetoacetate [2]: bound; Kd [2, 20]: ~93 µM; binding of 14C-labeled acetoacetate [3]: bound; Kd [3, 20]: ~113 µM; binding of 14C-labeled acetoacetate [4]: specifically bound; binding of 14C-labeled acetoacetate [5]: but not to a negative control mutant V600A or to other clinically reported BRAF mutants; binding in cellular thermal shift assay [6]: bound only to BRAF V600E; Km of BRAF V600E [7]: slightly decreased Km; Vmax of BRAF V600E [7]: increased Vmax; promotion of association between purified BRAF V600E and MEK1 [8]: promoted MEK1 binding; promotion of MEK1 binding to BRAF V600D with increased MEK1 phosphorylation [9]: promoted MEK1 binding; promotion of MEK1 binding to BRAF V600R with increased MEK1 phosphorylation [10]: promoted MEK1 binding; promotion of MEK1 binding to other BRAF mutants [11]: but not to other BRAF mutants; reversal by acetoacetate of the inhibitory effect of DHAA on cell proliferation [12]: did not reverse; reversal by acetoacetate of DHAA-decreased MEK-ERK activation [13]: could not be reversed; reversal by acetoacetate of DHAA-reduced cell proliferation [13]: could not be reversed; reversal by acetoacetate injection of DHAA inhibition of BRAF V600E-MEK1 binding in tumors [14, 21]: did not reverse; reversal by acetoacetate injection of DHAA inhibition of MEK1 and ERK1/2 phosphorylation in tumors [14, 21]: did not reverse; reversal by acetoacetate injection of DHAA inhibition of cell proliferation rates (Ki67) in tumors [14, 21]: did not reverse; reversal by acetoacetate injection of fluvastatin- or niacin-attenuated tumor growth ([14]; intraperitoneal acetoacetate plus oral fluvastatin or niacin): could be reversed; BRAF V600E-MEK1 binding in tumors ([14]; single agent): enhanced BRAF V600E-MEK1 association; cell proliferation rates in tumors (Ki67 IHC staining) ([14]; single agent): enhanced cell proliferation rates; phosphorylation of MEK1 and ERK1/2 in tumors ([14]; single agent): enhanced phosphorylation of MEK1 and ERK1/2; xenograft tumor growth (growth rates, sizes, masses) ([14]; single agent, normal diet): increased growth rates and masses of xenograft tumors; also recorded: increased tumor sizes; also recorded: selectively promotes; reversal by acetoacetate injection of hypolipidemic agents' inhibitory effects (MEK1/ERK1/2 phosphorylation, BRAF V600E-MEK1 association, Ki67) ([14]; tumors): effectively reversed; rescue by acetoacetate injection of fenofibrate-decreased tumor growth ([15]; intraperitoneal acetoacetate plus fenofibrate): effectively rescued the decreased tumor growth; reversal by acetoacetate injection of hypolipidemic agents' inhibitory effects (MEK1/ERK1/2 phosphorylation, BRAF V600E-MEK1 association, Ki67) ([15]; tumors): effectively reversed; effect of acetoacetate injection on tumor growth potential ([16]; intraperitoneal acetoacetate, fenofibrate study): had no effect on tumor growth potential; BRAF-MEK1 binding in tumors ([16]; single agent): did not affect; cell proliferation rates in tumors (Ki67 IHC staining) ([16]; single agent): did not affect; phosphorylation of MEK1 and ERK1/2 (MEK-ERK activation) in tumors ([16]; single agent): did not affect; xenograft tumor growth (growth rates, sizes, masses) ([16]; single agent, normal diet): had no effect on growth rates or masses of tumor xenografts; serum levels of acetoacetate ([17]; acetoacetate injection in DHAA-treated A375 xenograft mice): increased serum levels of acetoacetate; serum 3HB levels [17, 22]: did not affect 3HB levels; serum acetoacetate levels [17, 22]: rescued the decreased serum acetoacetate levels; serum levels of 3HB (β-hydroxybutyrate) ([17]; effect of treatment): did not affect serum levels of 3HB; serum levels of acetoacetate ([17]; effect of treatment): increased serum levels of acetoacetate; acetoacetate or 3HB levels in urine [18]: did not alter; serum acetoacetate levels [18]: increased serum acetoacetate; stability of anion form relative to acid form [19]: approximately 55 times
